Here are results for two compounds from publication PMC7356390, “Dehydrozingerone, a Curcumin Analog, as a Potential Anti-Prostate Cancer Inhibitor In Vitro and In Vivo” (Molecules, 2020).

The subject of one data set is PLS10 cells xenograft. Put plainly: In vivo antitumor activity, PLS10 cells xenograft model. Further details: species or system male BALB/c-nu/nu mice. Particulars: for Body Weights at the end of the experiment / Organ Weights, Kidneys / Organ Weights, Livers: mean ± S.E.; for Ki67-labeling index in tumor sections: control 63; for tumor volume: control 96 cm^3; for CD31-positive areas in tumors (angiogenesis): vs control, p < 0.05; for survival percentage of nude mice: male, BALB/c-nu/nu, mouse, in vivo, 5 weeks. The method, then:
Figure 4 DZG inhibited cell proliferation and angiogenesis in vivo using PLS10 cells xenograft model. Mice were subcutaneously injected with PLS10 cells and treated two times per week with Cur or DZG (30 mg/kg body weight) for a period of 5 weeks. Tumor volume was measured twice a week and at the end of the study (a). The tumor masses were collected, sectioned and analyzed by immunohistochemistry to detect the Ki67-labeling index (b), % TUNEL (Terminal deoxynucleotidyl transferase dUTP nick end labeling)-positive cells (c) and % of the vessel area (d). Data presented in bar diagrams represent the mean ± S.E of eight mice in the control and nine mice in the treatment groups. ** p < 0.01 vs. control (one-way ANOVA, Dunnett’s multiple comparisons test, tested groups vs. control group).
The in vivo antitumor activity of DZG or Cur was examined using five-week-old male BALB/c-nu/nu mice. Mice were randomly divided into 3 groups, with up to 8 or 9 mice per group. The PLS10 cells (5.0 × 10^5) were subcutaneously injected into each mouse. The treatments were initiated 2 days after PLS10 cells injections, at which point, mice received 50% DMSO in normal saline solution (NSS) (vehicle control) at 30 mg/kg body weight of Cur or DZG via i.p. injection two times a week for five weeks. The body weight of each mouse was measured twice a week during the experiment. At week 5 of the experiment, mice were euthanized, and primary tumors and organs, such as lungs, liver, kidneys and lymph nodes, were removed and fixed in 10% buffered formalin. The tumor volume of each mouse was measured and calculated according to the following formulation: 0.52 × (axis1 × axis2 × axis3). A section of the primary tumor, lung, liver, and kidney specimens were collected and fixed in 10% buffered formalin. Tissue sections of the primary tumors and organs were stained with H&E.
The paraffin-embedded samples were sectioned and stained with rabbit monoclonal anti-Ki67 (SP6; Acris Antibodies GmbH, Herford, Germany) and rabbit polyclonal anti-CD31 antibodies (Abcam, Cambridge, UK) and sequentially stained with an anti-rabbit secondary antibody and avidin-biotin complex. The binding complexes were then visualized with diamino-benzidine. Subsequently, the sections were then counterstained lightly with hematoxylin for microscopic examination. The number of Ki67-staining cells for a minimum of 1000 cells was counted to determine the labeling index. For quantitative analysis of the vessel area, CD31-positive areas per the total area section were determined under microscopy (BZ-9000).
The paraffin-embedded samples were sectioned, and the degree of apoptosis in the tumor tissue was determined using a TUNEL assay (In situ Apoptosis Detection Kit; Takara Bio Inc., Ohtsu, Japan). The TUNEL assay was performed according to the manufacturer’s instructions. The number of TUNEL-labeled cells in a minimum of 1000 cells was counted in order to establish the labeling index.

A further data set relates to PLS10 cells. Put plainly: Cell cycle analysis (Guava cycle assay). Type of data set: cell-based, rat. As to conditions: 48 h. As for the experimental part: Cells were treated with Cur (0–20 μM) and DZG (0–200 μM) for 48 h. Cells were harvested for analysis of the cell cycle distribution by the Guava cycle (a,b), while cyclin D1 expression was determined by Western blot analysis (c,d). The level of protein expression was quantified by IMAGE J software. Data are presented as mean ± S.D. of three independent experiments. * p < 0.05 and ** p < 0.01 vs. control (one-way ANOVA, Dunnett’s multiple comparisons test, tested groups vs. control group). TEXT PRINTED IN THE PICTURE: (a) Cur: G1: 39.76±7.07 (Cur (μM): 5); S: 15.20±2.22 (Cur (μM): 5); G2/M: 45.02±8.26 (Cur (μM): 5); G1: 43.45±4.60 (Cur (μM): 10); S: 15.45±1.20 (Cur (μM): 10); G2/M: 40.90±6.08 (Cur (μM): 10); G1: 41.00±2.40 (Cur (μM): 15); S: 16.35±2.05 (Cur (μM): 15); G2/M: 42.60±4.67 (Cur (μM): 15); G1: 46.28±4.32 (Cur (μM): 20); S: 13.68±2.05 (Cur (μM): 20); G2/M: 43.10±5.50 (Cur (μM): 20) | (b) DZG: G1: 36.75±0.35 (DZG (μM): 50); S: 16.30±0.71 (DZG (μM): 50); G2/M: 46.95±0.35 (DZG (μM): 50); G1: 36.73±3.41 (DZG (μM): 100); S: 17.17±1.29 (DZG (μM): 100); G2/M: 46.10±2.78 (DZG (μM): 100); G1: 42.88±7.45 (DZG (μM): 150); S: 17.90±1.82 (DZG (μM): 150); G2/M: 39.25±6.13 (DZG (μM): 150); G1: 52.95±7.52 (DZG (μM): 200); S: 16.23±1.02 (DZG (μM): 200); G2/M: 31.00±6.67 (DZG (μM): 200) DOUBTS OF THE COPYIST ABOUT THIS PICTURE: Control columns (panel a: G1: 38.86±4.93, S: 14.52±1.90, G2/M: 46.60±5.74; panel b: G1: 35.93±2.45, S: 15.90±2.11, G2/M: 48.18±2.51) are printed but left out of lines, as Control is not a substance
The PLS10 cells (1.0 × 10^5 cells per well) were plated into a 6-well plate overnight. Then, cells were treated with increasing concentrations of Cur (0–20 µM) or DZG (0–200 µM) in the present of 0.5% DMSO (vehicle control) for the next 48 h. Cell morphology was investigated and photographed under a microscope. The cell cycle distribution was determined using a Guava cycle assay (Guava Technologies, Hayward, CA, USA) according to the manufacturer’s protocols. Briefly, the cells were removed by trypsinization, and the cell suspension was fixed in ice-cold 70% methanol at −20°C. After that, the methanol was removed, and the cells were washed with PBS before being stained with a Guava cycle reagent for 30 min. Cell cycle distribution was determined on a Guava PCA Instrument using Guava®ViacountTM Software (Merck Ltd., Darmstadt, Germany).

[1] abbreviates: 30 mg/kg i.p. two times a week for five weeks.

With `COc1cc(/C=C/C(=O)CC(=O)/C=C/c2ccc(O)c(OC)c2)ccc1O` [Cur, Curcumin], in the data set with PLS10 cells xenograft (setting [1]), the “Body Weights at the end of the experiment” value was 26.71 ± 1.26; the “Organ Weights, Kidneys” value is 0.40 ± 0.03; the “Organ Weights, Livers” value is recorded as 1.67 ± 0.10; the “Ki67-labeling index in tumor sections” value worked out at 62%. Besides, in the data set on PLS10 cells xenograft (setting [1]), the tumor volume turned out to be 38 cm^3 and the “CD31-positive areas in tumors (angiogenesis)” value is reported as “significantly reduced”. Besides, the “survival percentage of nude mice” value with PLS10 cells xenograft is given as 100%. The “G1 phase cell population” value in the data set on PLS10 cells (Cur 20 µM) is listed as 46%.

Take `COc1cc(/C=C/C(C)=O)ccc1O` [DZG, (E)-4-(4-hydroxy-3-methoxyphenyl)-but-3-en-2-one]: in the data set with PLS10 cells xenograft (setting [1]), the “Body Weights at the end of the experiment” value is 27.12 ± 1.00; the “Organ Weights, Kidneys” value was determined as 0.39 ± 0.03; the “Organ Weights, Livers” value is 1.60 ± 0.09; the “Ki67-labeling index in tumor sections” value is listed as 59%. In the data set on PLS10 cells xenograft (setting [1]), the tumor volume was determined as 24 cm^3 and the “CD31-positive areas in tumors (angiogenesis)” value is “significantly reduced”. Moreover, in the data set on PLS10 cells xenograft (30 mg/kg i.p. two times a week for five weeks, control 7%), the “apoptotic cells (TUNEL-positive) in tumor sections” value stood at 10%. For the same compound, the “survival percentage of nude mice” value with PLS10 cells xenograft was found to be 100%. Also, in the data set with PLS10 cells (DZG 150 µM), the “G1 phase cell population” value is reported as 43% and the “G2/M phase cell population” value turned out to be 39%. In the data set on PLS10 cells (DZG 200 µM), the “G1 phase cell population” value is 53% and the “G2/M phase cell population” value was 31%.
